Test results published in patent US20130023469A1, “LEPTIN FOR USE IN INCREASING LIVER REGENERATION” (Hadasit Medical Research Services & Development Ltd., priority 2009, published 2013).
“And” between values parts separate entries of the source, which are not always exact repeats. Identical values can stand only once. “Also recorded” adds a separate entry of the source.

How the values were obtained:
hepatocytes [1] = assay: BrdU incorporation into hepatocytes (proliferation index) after two-thirds partial hepatectomy; format: in vivo, mice
Protocol: Animal studies and tissue preparation. All animal experiments were performed in accordance with the guidelines of the Institutional Committee for the Use of Animals for Research (IACUC). Mice aged 18 months or older (‘old’ mice) were either purchased from the National Institute of Aging and from Charles River Laboratories or maintained up to the required age in the Specific Pathogen Free (SPF) animal facility at our institution. Mice aged 10-12 months (‘aged’ mice) and 8-week-old ob/ob mice were purchased from Harlan Laboratories. The genetic background of all mice was c57 Black. Pregnancy in ob/ob mice was induced as described previously (Malik et al., 2001). Pseudopregnancy was induced by mating females with vasectomized males and observing for the presence of vaginal plugs. Progesterone levels were measured to verify pseudopregnancy induction (Shiotani et al., 1993). For rapamycin treatment, mice were injected intraperitoneally (i.p.) for 3 consecutive days with rapamycin (0.2 mg/kg body weight diluted in DMSO; LC Laboratories), starting 3 h before the hepatectomy. For PTEN inhibition, bpV(phen) (3.3 μg/g body weight diluted in normal saline; Alexis Biochemicals) was administered i.p. on the day before hepatectomy and once a day for 3 days thereafter. BrdU (100 μl/10 g body weight; Amersham) was injected i.p. at the indicated times before the mice were killed. When indicated, BrdU (#B5002; Sigma) was added to the drinking water (0.8 mg/ml). The mice were allowed to drink ad libitum. For all experiments mice were killed by cervical dislocation. In some cases, a liver sample was removed and ‘snap-frozen’ for protein and RNA analyses. Livers were removed, weighed, photographed, and fixed in formalin overnight, and the next day the entire liver was embedded in paraffin. For measurement of serum prothrombin time, sodium citrate (0.105 M) was added immediately to the blood sample at a ratio of 1:10 (v/v), and values were recorded with a Beckman Coulter ACL 9000 Coagulation Analyzer according to the manufacturer's instructions. For ⅔ partial hepatectomy, virgin or pregnant mice (16-18 days post-coitum unless otherwise specified) were anesthetized, and the median and left lateral lobes of the liver were removed, as described (Ben Moshe et al., 2007).
Proliferation index. The percentage of BrdU-positive hepatocyte nuclei was assessed using the Kisight module of the Ariol SL 50® automated scanning microscope and image analysis system, according to the manufacturer's instructions. The same gating parameters were used for all sections. Ten fields in each liver were scored and the average percentage was calculated.
Immunohistochemistry and immunofluorescence. […]

hepatocytes [2] = assay: Hepatocyte cell size (E-cadherin staining) after partial hepatectomy; format: in vivo, mice
Protocol: (§1) Animal studies and tissue preparation. All animal experiments were performed in accordance with the guidelines of the Institutional Committee for the Use of Animals for Research (IACUC). Mice aged 18 months or older (‘old’ mice) were either purchased from the National Institute of Aging and from Charles River Laboratories or maintained up to the required age in the Specific Pathogen Free (SPF) animal facility at our institution. Mice aged 10-12 months (‘aged’ mice) and 8-week-old ob/ob mice were purchased from Harlan Laboratories. The genetic background of all mice was c57 Black. Pregnancy in ob/ob mice was induced as described previously (Malik et al., 2001). […] Progesterone levels were measured to verify pseudopregnancy induction (Shiotani et al., 1993). […] For measurement of serum prothrombin time, sodium citrate (0.105 M) was added immediately to the blood sample at a ratio of 1:10 (v/v), and values were recorded with a Beckman Coulter ACL 9000 Coagulation Analyzer according to the manufacturer's instructions. […]
Measurement of cell size. […] The numbers of pixels in 100-300 individual hepatocytes for each mouse were scored with ImageJ (NIH) by an observer who was blinded to the treatment group. […] Mean hepatocyte volume was calculated by dividing the hepatocyte volume by the number of hepatocytes. […]

Akt/mTORC1 pathway = assay: Western blot / phospho-4E-BP analysis of liver for Akt/mTORC1 pathway activation; format: in vivo, mice
Protocol: as §1
Western blot analysis. […] Tissue lysates containing 100 μg protein were separated by 12% SDS-PAGE, and assessed by Western blot analysis by means of sequential probing with the relevant primary antibody and a relevant anti-IgG conjugated to horseradish peroxidase (Jackson ImmunoResearch).

[3] = tested on: old mice after partial hepatectomy; assay: Post-hepatectomy mortality in old mice; format: in vivo; settings: female mice aged 18-24 mo, control four out of nine, P=0.014
Protocol: Animal studies and tissue preparation. All animal experiments were performed in accordance with the guidelines of the Institutional Committee for the Use of Animals for Research (IACUC). Mice aged 18 months or older (‘old’ mice) were either purchased from the National Institute of Aging and from Charles River Laboratories or maintained up to the required age in the Specific Pathogen Free (SPF) animal facility at our institution. Mice aged 10-12 months (‘aged’ mice) and 8-week-old ob/ob mice were purchased from Harlan Laboratories. The genetic background of all mice was c57 Black. Pregnancy in ob/ob mice was induced as described previously (Malik et al., 2001). Pseudopregnancy was induced by mating females with vasectomized males and observing for the presence of vaginal plugs. Progesterone levels were measured to verify pseudopregnancy induction (Shiotani et al., 1993). For rapamycin treatment, mice were injected intraperitoneally (i.p.) for 3 consecutive days with rapamycin (0.2 mg/kg body weight diluted in DMSO; LC Laboratories), starting 3 h before the hepatectomy. […] For measurement of serum prothrombin time, sodium citrate (0.105 M) was added immediately to the blood sample at a ratio of 1:10 (v/v), and values were recorded with a Beckman Coulter ACL 9000 Coagulation Analyzer according to the manufacturer's instructions. […]

[4] = tested on: old mice after partial hepatectomy; assay: Post-hepatectomy blood coagulation (prothrombin time) and locomotor activity tests; format: in vivo; settings: female mice aged 18-24 mo, compared with nontreated old mice
Protocol: Animal studies and tissue preparation. All animal experiments were performed in accordance with the guidelines of the Institutional Committee for the Use of Animals for Research (IACUC). Mice aged 18 months or older (‘old’ mice) were either purchased from the National Institute of Aging and from Charles River Laboratories or maintained up to the required age in the Specific Pathogen Free (SPF) animal facility at our institution. Mice aged 10-12 months (‘aged’ mice) and 8-week-old ob/ob mice were purchased from Harlan Laboratories. The genetic background of all mice was c57 Black. Pregnancy in ob/ob mice was induced as described previously (Malik et al., 2001). Pseudopregnancy was induced by mating females with vasectomized males and observing for the presence of vaginal plugs. Progesterone levels were measured to verify pseudopregnancy induction (Shiotani et al., 1993). […] For measurement of serum prothrombin time, sodium citrate (0.105 M) was added immediately to the blood sample at a ratio of 1:10 (v/v), and values were recorded with a Beckman Coulter ACL 9000 Coagulation Analyzer according to the manufacturer's instructions. […]
Locomotor activity. This was monitored using a photocell cage, 43.2 cm×43.2 cm (Med Associates), with 16 beam I/R arrays located along each wall of the box. […]

hepatocytes [5] = settings: previous studies; cited from earlier work
[6] = tested on: H35 cells (rat hepatoma cell line); assay: Western blot of H35 cells treated with leptin, IL6 or both; format: cell-based; settings: starvation for 16 h then treated
Protocol: Western blot analyses of hepatoma rat cells, that were under starvation for 16 h and then treated with: bpV(phen), leptin, IL-6 and combination of IL-6 and Leptin.
Leptin is an adipokine of the IL6 family and its receptor signals through both the JAK/STAT and the Akt/mTORC1 pathways. Its origin is placental in humans, maternal in mice, and in late pregnancy it is increased by up to 25-fold. To test whether pregnancy-induced leptin accumulation contributes to the proliferation-to-hypertrophy switch in pregnancy we used ob/ob mice, which carry a loss-of-function mutation in leptin. Indeed, hepatocyte proliferation was not decreased in pregnant versus non-pregnant ob/ob mice (FIG. 13A). Moreover, liver regeneration in pregnant ob/ob mice was not accompanied by hepatocyte hypertrophy (FIGS. 13B-D). These findings confirmed that maternal leptin is necessary for the pregnancy-induced module switch. Furthermore, the phosphorylation state of components of the Akt/mTORC1 pathway was not increased in pregnant relative to nonpregnant mice (FIG. 13E FIG. 4e). […] Cells were harvested and protein extracts were analyzed by Western blot analysis. […] To test whether leptin is sufficient to activate the hypertrophy module, we administered leptin or vehicle to nonpregnant female mice prior to and after hepatectomy (FIG. 15A) and assessed liver growth and proliferation.

liver regeneration = assay: Prolactin administration to nonpregnant mice, liver regeneration; format: in vivo; settings: data not shown
Description: In searching for the upstream signals mediating the pregnancy-induced switch, we identified four candidate hormones that are elevated in pregnancy and can activate the Akt/mTORC1 pathway: growth hormone (and its variants), prolactin, leptin and estrogen.

[7] = young nonpregnant mice treated with bpV(phen), after partial hepatectomy

With `O.O.O.OO.OO.[K+].[OH-].[V].c1cnc2c(c1)ccc1cccnc12` [bpV(phen), bisperoxovanadium 1,10-phenanthroline] the “proliferation index” value (hepatocytes [1]; [7]) was “low proliferation index”, the BrdU-labeled hepatocytes (hepatocytes [1]; young nonpregnant mice, 4 d after partial hepatectomy, continuous BrdU, bpV(phen) 3.3 μg/g i.p., untreated 92±1%) was 8±2% and the “growth in the mean cross-sectional area” value (hepatocytes [2]; [7]) was 115%. For the same molecule, the “activation of Akt/mTORC1 pathway (phosphorylated Akt and 4E-BP1, Western blot)” value (Akt/mTORC1 pathway; liver extracts of young mice treated with bpV(phen)) was “activates the Akt/mTORC1 pathway”, the mortality rate [3] was “zero out of nine” and the “recovery from partial hepatectomy (blood coagulation and locomotor activity)” value [4] was “significant improvement in recovery from partial hepatectomy”.

In the case of `CO[C@H]1C[C@@H]2CC[C@@H](C)[C@@](O)(O2)C(=O)C(=O)N2CCCC[C@H]2C(=O)O[C@H]([C@H](C)C[C@@H]2CC[C@@H](O)[C@H](OC)C2)CC(=O)[C@H](C)/C=C(\C)[C@@H](O)[C@@H](OC)C(=O)[C@H](C)C[C@H](C)/C=C/C=C/C=C/1C` [rapamycin], the “hepatocyte proliferation rate (BrdU-labeled)” value (hepatocytes [1]; aged pregnant mice, 2 d after partial hepatectomy, rapamycin 0.2 mg/kg i.p. for 3 days, vehicle 2%±1%) is reported as 25±8% and 25%±8% and the cell size (hepatocytes [2]; aged pregnant mice, 2 d after partial hepatectomy, rapamycin-treated, vehicle 527±2) is reported as 422±1 μ^2.

In the case of Estrogen, the “hepatocyte proliferation after partial hepatectomy” value (hepatocytes [5]) is listed as “increase hepatocyte proliferation after partial hepatectomy”.

In the case of “growth hormone: hormone elevated in pregnancy; not tested by the applicant, literature result only”, the “hepatocyte proliferation after partial hepatectomy” value (hepatocytes [5]) is given as “increase hepatocyte proliferation after partial hepatectomy”.

B1: leptin: adipokine of the IL6 family; mouse leptin was injected in mice (protein, UniProt P41160 22-167, looked up)
Leptin: VPIQKVQDDTKTLIKTIVTRINDISHTQSVSAKQRVTGLDFIPGLHPILSLSKMDQTLAVYQQVLTSLPSQNVLQIANDLENLRDLLHLLAFSKSCSLPQTSGLQKPESLDGVLEASLYSTEVVALSRLQGSLQDILQQLDVSPEC
With B1 the “hepatocyte proliferation (BrdU-positive cells)” value (hepatocytes [1]; nonpregnant female mice, leptin S.C. 1 mg/kg from two days before to two days after partial hepatectomy) was “marked reduction in hepatocyte proliferation”, the “Akt pathway activation (phosphorylation of 4E-BP)” value (Akt/mTORC1 pathway; nonpregnant female mice, leptin S.C. 1 mg/kg, two days after partial hepatectomy) was “activating the Akt pathway” and the “Akt pathway activation (phosphorylation of S6 kinase and 4E-BP)” value [6] was “activates the Akt pathway; also recorded: phosphorylation of both S6 kinase and 4E-BP”. For the same molecule, the “hepatocyte proliferation after partial hepatectomy” value (hepatocytes [5]) was “attenuates hepatocyte proliferation after partial hepatectomy”.

B2: prolactin: hormone elevated in pregnancy that can activate the Akt/mTORC1 pathway (protein, UniProt P01236 29-227, looked up)
Prolactin: LPICPGGAARCQVTLRDLFDRAVVLSHYIHNLSSEMFSEFDKRYTHGRGFITKAINSCHTSSLATPEDKEQAQQMNQKDFLSLIVSILRSWNEPLYHLVTEVRGMQEAPEAILSKAVEIEEQTKRLLEGMELIVSQVHPETKENEIYPVWSGLPSLQMADEESRLSAYYNLLHCLRRDSHKIDNYLKLLKCRIIHNNNC
In the case of B2, the “effect on liver regeneration” value (liver regeneration) is reported as “no effect on liver regeneration”.
